Tested on: K-562 leukemia growth, % test/control
Assay: Anticancer human tumor K-562 cell line growth inhibition;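 also: spheroids exposed to compounds for 7 days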;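 as to viability, T/C: 100% = DMSO vehicle wells and lower values mean fewer viable cells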
Settings: spheroids with HUVEC and MSC; for IC50: curve of first compound; for viability, T/C: stronger effect = lower value
Outline: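 Multicellular complex spheroids of tumor cells with human endothelial cells (HUVEC) and mesenchymal stem cells; the LSD1 inhibitor iadademstat was combined with standard-of-care or investigational agents. Top concentration at or near clinical Cmax, half-log dilutions; final DMSO ≤0.25%.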

[1] = second compound 0.1 µM, first compound 0.00949 µM
[2] = second compound 0.1 µM, first compound 0.03 µM
[3] = second compound 0.1 µM, first compound 0.0949 µM
[4] = second compound 0.1 µM, first compound 0.3 µM
[5] = second compound 0.316 µM, first compound 0.00949 µM
[6] = second compound 0.316 µM, first compound 0.03 µM
[7] = second compound 0.316 µM, first compound 0.0949 µM
[8] = second compound 0.316 µM, first compound 0.3 µM
[9] = second compound 1 µM, first compound 0.00949 µM
[10] = second compound 1 µM, first compound 0.03 µM
[11] = second compound 1 µM, first compound 0.0949 µM
[12] = second compound 1 µM, first compound 0.3 µM
[13] = second compound 3.16 µM, first compound 0.00949 µM
[14] = second compound 3.16 µM, first compound 0.03 µM
[15] = second compound 3.16 µM, first compound 0.0949 µM
[16] = second compound 3.16 µM, first compound 0.3 µM
[17] = second compound 10 µM, first compound 0.00949 µM
[18] = second compound 10 µM, first compound 0.03 µM
[19] = second compound 10 µM, first compound 0.0949 µM
[20] = second compound 10 µM, first compound 0.3 µM

SMILES | IC50 (second compound 0.1 µM) [nM] | IC50 (second compound 0.316 µM) [nM] | IC50 (second compound 1 µM) [nM] | IC50 (second compound 3.16 µM) [nM] | IC50 (second compound 10 µM) [nM] | viability, T/C [1] [%] | viability, T/C [2] [%] | viability, T/C [3] [%] | viability, T/C [4] [%] | viability, T/C [5] [%] | viability, T/C [6] [%] | viability, T/C [7] [%] | viability, T/C [8] [%] | viability, T/C [9] [%] | viability, T/C [10] [%] | viability, T/C [11] [%] | viability, T/C [12] [%] | viability, T/C [13] [%] | viability, T/C [14] [%] | viability, T/C [15] [%] | other results
CCc1c2c(nc3ccc(O)cc13)-c1cc3c(c(=O)n1C2)COC(=O)[C@]3(O)CC + NC1CC1c1ccc(-c2cccc(O)c2)cc1 | < 0.949 | < 0.949 | < 0.949 | < 0.949 | < 0.949 | 2.16 | 0.75 | 0.56 | 0.55 | 1.86 | 0.71 | 0.44 | 0.5 | 1.67 | 0.89 | 0.51 | 0.57 | 2.63 | 0.67 | 0.46 | viability, T/C (second compound 0.1 µM, first compound 0.000949 µM): 10.6%; viability, T/C (second compound 0.1 µM, first compound 0.003 µM): 4.88%; viability, T/C (second compound 0.316 µM, first compound 0.000949 µM): 8.09%; viability, T/C (second compound 0.316 µM, first compound 0.003 µM): 3.51%; viability, T/C (second compound 1 µM, first compound 0.000949 µM): 7.04%; viability, T/C (second compound 1 µM, first compound 0.003 µM): 3.48%; viability, T/C (second compound 3.16 µM, first compound 0.000949 µM): 7.47%; viability, T/C (second compound 3.16 µM, first compound 0.003 µM): 4.23%; viability, T/C [16]: 0.55%; viability, T/C (second compound 10 µM, first compound 0.000949 µM): 5.81%; viability, T/C (second compound 10 µM, first compound 0.003 µM): 2.92%; viability, T/C [17]: 1.32%; viability, T/C [18]: 0.74%; viability, T/C [19]: 0.43%; viability, T/C [20]: 1.23%
Nc1ccccc1NC(=O)c1ccc(CNC(=O)OCc2cccnc2)cc1 + NC1CC1c1ccc(-c2cccc(O)c2)cc1 | 180 | 173 | 165 | 152 | 121 | 114 | 111 | 103 | 7.04 | 114 | 109 | 97.1 | 6.48 | 111 | 110 | 92 | 5.06 | 111 | 111 | 81.3 | viability, T/C (second compound 0.1 µM, first compound 0.949 µM): 0.24%; viability, T/C (second compound 0.1 µM, first compound 3 µM): 1.31%; viability, T/C (second compound 0.316 µM, first compound 0.949 µM): 0.2%; viability, T/C (second compound 0.316 µM, first compound 3 µM): 0.13%; viability, T/C (second compound 1 µM, first compound 0.949 µM): 0.25%; viability, T/C (second compound 1 µM, first compound 3 µM): 0.13%; viability, T/C [16]: 4.61%; viability, T/C (second compound 3.16 µM, first compound 0.949 µM): 0.18%; viability, T/C (second compound 3.16 µM, first compound 3 µM): 1.02%; viability, T/C [17]: 104%; viability, T/C [18]: 98.5%; viability, T/C [19]: 62.6%; viability, T/C [20]: 3.34%; viability, T/C (second compound 10 µM, first compound 0.949 µM): 0.19%; viability, T/C (second compound 10 µM, first compound 3 µM): 1.28%

Reference: PubChem BioAssay AID1918948 (Molecular Pharmacology Branch, DTP, NCI, 2023)
